2 compounds from ChEMBL document CHEMBL1122271, “Folate analogues. 22. Synthesis and biological evaluation of two analogues of dihydrofolic acid possessing a 7,8-dihydro-8-oxapterin ring system” (J Med Chem, 1983) can be followed below.

Holding throughout (format): functional, organism-based
The subject of assay [1] is Lacticaseibacillus casei. Put plainly: Compound was measured for the growth inhibition of Lactobacillus casei up to concentration 4 ug/mL; NA means inactive.
Assay [2] concerns Enterococcus faecium. Put plainly: Compound was measured for the growth inhibition of Streptococcus faecium. As to conditions: read-out: I50; call rule not given here.
Assay [3] deals with Enterococcus faecium. Put plainly: Compound was measured for the growth inhibition of S. faecium; NA means inactive.

≈ marks a conversion by molar mass, not a printed value.

On to `NC1=NC(=O)C2N=C(Cc3ccc(C(=O)NC(CCC(=O)O)C(=O)O)cc3)COC2N1` (centres undefined), for which, in assay [1], the I50 entry is reported as “Not Active”. In addition, the IC50 in assay [2] stood at 1.4 µg/mL (≈ 3.25 µM).

`NC1=NC(=O)C2N=C(c3ccc(C(=O)NC(CCC(=O)O)C(=O)O)cc3)COC2N1` (centres undefined): the I50 entry in assay [1] and in assay [3] was “Not Active” throughout.
